Source: patent US7345037B2, “Nitrosated and nitrosylated compounds and compositions and their use for treating respiratory disorders” (Nitromed, Inc., priority 1996, dated 2008)

What was measured:
[1] = tested on: acute bronchoconstriction and late bronchial obstruction after inhalation challenge with Ascaris Suum; assay: Ascaris suum-induced immediate and late bronchial response (mean lung resistance sR1) in allergic conscious sheep; assay type: in vivo; conditions: for protection of the immediate response / protection of the peak late response: 500 μg aerosolized 30 minutes prior to ascaris suum challenge, referenced to historical controls, n=3
Text: (§1) The measurement of biological activity in a pulmonary model of allergic asthma and lung inflammation was undertaken in adult conscious sheep. The methodology was essentially as described by W. M. Abraham et al. (Bull. Eur. Physiopathol. Respir., 22, 387 (1986)). Adult sheep with a natural cutaneous reaction to Ascaris Suum extract and who respond to inhalation challenge with Ascaris Suum with both an acute bronchoconstriction and a late bronchial obstruction were used in the study.
Unsedated sheep were intubated and measurement of airway mechanics were computed and recorded on a digital computer utilizing inputs of transpulmonary pressure and tracheal airflow recordings. Each animal was exposed to an aerosol of ascaris suum, diluted to produce an immediate and significant increase in mean lung resistance (sR1) of approximately 600-700% above baseline. […] This second response is known as the late response. sR1 returned to baseline by 24 hours. Each animal was exposed to an aerosol of ascaris suum at a minimum of two week interval. […]
(§2) Each test drug was aerosolized to an animal 30 minutes prior to challenge with ascaris suum.

[2] = tested on: airway responsiveness to aerosolized carbachol after exposure to ascaris suum; assay: Airway responsiveness to aerosolized carbachol (PC150) before and after Ascaris suum challenge in allergic conscious sheep; assay type: in vivo; conditions: 500 μg aerosolized, PC150 of carbachol 24 hours prior to and 24 post ascaris suum exposure, closer to unity is better
Text: as §1
Airway responsiveness was measured by calculation of a PC150 value. The PC150 is the dose of aerosolized carbachol which produces a 150% increase in sR1 above baseline. The doses of carbachol were administered in an ascending dose-response fashion with each dose being administered for a 10 breath duration. The PC150 value was determined for each animal 24 hours prior to exposure to ascaris suum and again 24 post exposure. The difference in PC150 values represented a change in airway responsiveness. The closer the post challenge to prechallenge ratio to unity the better the effect of the particular compound.
as §2

Compound	protection of the immediate response [1]	protection of the peak late response [1]	protection against lung function changes due to aerosol challenge of ascaris suum ([1]; overall comparison with the parent steroid)	post challenge/prechallenge ratio of PC150 values (airway hyperresponsiveness) [2]
6α-Fluoro-11β-hydroxy-16α,17-((1-methylethylidene)bis(oxy))pregna-1,4-diene-3,20-dione-21-(3-methyl-3-nitrosothio)-butanoate [Example 1]	59±14%	89±2%	better protection	1.18±0.06
CC1(C)O[C@@H]2C[C@H]3[C@@H]4C[C@H](F)C5=CC(=O)C=C[C@]5(C)[C@H]4[C@@H](O)C[C@]3(C)[C@]2(C(=O)CO)O1 [6α-Fluoro-11β, 21-dihydroxy-16α, 17α-((1-methylethylidene)bis(oxy))pregna-1,4-diene-3,20-dione, reference compound]	16±21%	83±7%		0.98±0.10
